These cell lines were tested with CN1CCN(CC1)C2=CC(=C(C=C2)NC3=NC=C4C(=N3)N(C5=CC=CC=C5C(=O)N4C)C)OC [XMD8-85] + COc1cccc2cc(-c3nc([C@H]4CC[C@H](C(=O)O)CC4)n4ncnc(N)c34)[nH]c12 [OSI-027] (partner 0.5 µM) (assay: relative viability (nuclei count vs DMSO), 5 days (fraction); higher = more cells survive). Conditions: first compound 0.08 µM.
Method in brief: (§1)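 Relative viability was taken as the ratio of nuclei in treated wells to nuclei in vehicle wells. Lung cancer cell lines in 1536-well plates received compounds by pin tool one day after seeding, either one drug alone or a fixed anchor-drug dose plus five library-drug doses (not always all listed) in √10 steps. Nuclei were counted on 4× images after 5 days of treatment, and values are medians of duplicate plates.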

| Cell Line | relative viability |
| --- | --- |
| NCI-H2228 | 0.544 |
| NCI-H2342 | 0.606 |
| NCI-H2347 | 0.447 |
| NCI-H2405 | 0.6 |
| NCI-H3122 | 0.867 |
| PC-3 [JPC-3] | 0.769 |
| PC-14 | 0.835 |
| RERF-LC-KJ | 0.684 |
| SK-LU-1 | 0.287 |
| SK-MES-1 | 0.533 |
| SW 900 | 0.583 |
| SW 1573 | 0.566 |
| UMC-11 | 0.457 |

Same assay, conditions: first compound 0.253 µM

| Cell Line | relative viability |
| --- | --- |
| NCI-H2228 | 0.879 |
| NCI-H2342 | 0.605 |
| NCI-H2347 | 0.382 |
| NCI-H2405 | 0.645 |
| NCI-H3122 | 1.02 |
| PC-3 [JPC-3] | 0.754 |
| PC-14 | 0.971 |
| RERF-LC-KJ | 0.504 |
| SK-LU-1 | 0.383 |
| SK-MES-1 | 0.657 |
| SW 900 | 0.623 |
| SW 1573 | 0.61 |
| UMC-11 | 0.461 |

Same assay, conditions: first compound 0.8 µM

| Cell Line | relative viability |
| --- | --- |
| NCI-H2228 | 0.686 |
| NCI-H2347 | 0.421 |
| NCI-H2405 | 0.604 |
| NCI-H3122 | 1.34 |
| PC-3 [JPC-3] | 0.698 |
| PC-14 | 0.776 |
| RERF-LC-KJ | 0.645 |
| SK-MES-1 | 0.608 |
| SW 900 | 0.581 |
| SW 1573 | 0.669 |
| UMC-11 | 0.521 |

Same assay, conditions: first compound 2.53 µM

| Cell Line | relative viability |
| --- | --- |
| NCI-H2228 | 0.6 |
| NCI-H2342 | 0.594 |
| NCI-H2347 | 0.578 |
| NCI-H2405 | 0.598 |
| NCI-H3122 | 1.08 |
| PC-3 [JPC-3] | 0.814 |
| RERF-LC-KJ | 0.577 |
| SK-LU-1 | 0.365 |
| SK-MES-1 | 0.525 |
| SW 900 | 0.553 |
| SW 1573 | 0.607 |
| UMC-11 | 0.436 |

Same assay, conditions: first compound 8 µM

| Cell Line | relative viability |
| --- | --- |
| NCI-H2228 | 0.336 |
| NCI-H2342 | 0.641 |
| NCI-H2347 | 0.454 |
| NCI-H2405 | 0.631 |
| NCI-H3122 | 0.532 |
| PC-3 [JPC-3] | 0.71 |
| PC-14 | 0.373 |
| RERF-LC-KJ | 0.461 |
| SK-LU-1 | 0.297 |
| SK-MES-1 | 0.457 |
| SW 900 | 0.304 |
| SW 1573 | 0.327 |
| UMC-11 | 0.371 |

Each cell line was assayed with O=C(O)C(Cc1ccccc1[N+](=O)[O-])=NNc1nc(-c2ccc(Cl)c(Cl)c2)cs1 (mixture of isomers) [4EGI-1] + N=C(N)NC(=N)NCCc1ccccc1 [Phenformin] (partner 250 µM) in the same assay as above. Conditions: first compound 0.5 µM.
Method in brief: as §1

| Cell Line | relative viability |
| --- | --- |
| NCI-H2228 | 0.314 |
| NCI-H2342 | 0.582 |
| NCI-H2347 | 0.614 |
| NCI-H2405 | 0.419 |
| NCI-H3122 | 0.372 |
| PC-3 [JPC-3] | 0.484 |
| PC-14 | 0.614 |
| RERF-LC-KJ | 0.412 |
| SK-LU-1 | 0.653 |
| SK-MES-1 | 0.687 |
| SW 900 | 0.812 |
| SW 1573 | 0.457 |
| UMC-11 | 0.384 |

Same assay, conditions: first compound 1.581 µM

| Cell Line | relative viability |
| --- | --- |
| NCI-H2228 | 0.313 |
| NCI-H2342 | 0.588 |
| NCI-H2405 | 0.338 |
| PC-3 [JPC-3] | 0.486 |
| SK-LU-1 | 0.546 |
| SK-MES-1 | 0.614 |
| SW 1573 | 0.388 |
| UMC-11 | 0.365 |

Same assay, conditions: first compound 5 µM

| Cell Line | relative viability |
| --- | --- |
| NCI-H2228 | 0.379 |
| NCI-H2342 | 0.716 |
| NCI-H2347 | 0.379 |
| NCI-H2405 | 0.421 |
| NCI-H3122 | 0.378 |
| PC-3 [JPC-3] | 0.476 |
| PC-14 | 0.792 |
| RERF-LC-KJ | 0.442 |
| SK-LU-1 | 0.681 |
| SK-MES-1 | 0.725 |
| SW 900 | 0.807 |
| SW 1573 | 0.403 |
| UMC-11 | 0.334 |

Same assay, conditions: first compound 15.81 µM

| Cell Line | relative viability |
| --- | --- |
| NCI-H2228 | 0.298 |
| NCI-H2342 | 0.641 |
| NCI-H2347 | 0.363 |
| NCI-H2405 | 0.409 |
| NCI-H3122 | 0.33 |
| PC-14 | 0.188 |
| RERF-LC-KJ | 0.354 |
| SK-LU-1 | 0.632 |
| SK-MES-1 | 0.618 |
| SW 900 | 0.527 |
| SW 1573 | 0.276 |
| UMC-11 | 0.28 |

Same assay, conditions: first compound 50 µM

| Cell Line | relative viability |
| --- | --- |
| NCI-H2228 | 0.141 |
| NCI-H2342 | 0.522 |
| NCI-H2347 | 0.344 |
| NCI-H2405 | 0.409 |
| NCI-H3122 | 0.169 |
| PC-3 [JPC-3] | 0.431 |
| PC-14 | 0.232 |
| RERF-LC-KJ | 0.333 |
| SK-LU-1 | 0.264 |
| SK-MES-1 | 0.381 |
| SW 900 | 0.322 |
| SW 1573 | 0.114 |
| UMC-11 | 0.237 |

What follows are cell lines tested with CN1CCN(CC1)C2=CC(=C(C=C2)NC3=NC=C4C(=N3)N(C5=CC=CC=C5C(=O)N4C)C)OC [XMD8-85] + CC(=O)c1c(C)c2cnc(Nc3ccc(N4CCNCC4)cn3)nc2n(C2CCCC2)c1=O [Palbociclib] (partner 0.5 µM) in the same assay as above. Conditions: first compound 0.08 µM.
Method in brief: as §1

| Cell Line | relative viability |
| --- | --- |
| NCI-H2228 | 0.651 |
| NCI-H2342 | 0.445 |
| NCI-H2347 | 0.523 |
| NCI-H2405 | 0.527 |
| NCI-H3122 | 0.188 |
| PC-3 [JPC-3] | 0.489 |
| PC-14 | 0.552 |
| RERF-LC-KJ | 1.09 |
| SK-LU-1 | 0.358 |
| SK-MES-1 | 0.342 |
| SW 900 | 0.553 |
| UMC-11 | 0.359 |

Same assay, conditions: first compound 0.253 µM

| Cell Line | relative viability |
| --- | --- |
| NCI-H2228 | 0.572 |
| NCI-H2342 | 0.561 |
| NCI-H2347 | 0.457 |
| NCI-H3122 | 0.192 |
| PC-3 [JPC-3] | 0.539 |
| PC-14 | 0.44 |
| RERF-LC-KJ | 1.13 |
| SK-LU-1 | 0.364 |
| SK-MES-1 | 0.351 |
| SW 900 | 0.535 |
| SW 1573 | 0.387 |
| UMC-11 | 0.336 |

Same assay, conditions: first compound 0.8 µM

| Cell Line | relative viability |
| --- | --- |
| NCI-H2228 | 0.828 |
| NCI-H2342 | 0.503 |
| NCI-H2347 | 0.395 |
| NCI-H2405 | 0.543 |
| NCI-H3122 | 0.218 |
| PC-3 [JPC-3] | 0.551 |
| PC-14 | 0.596 |
| RERF-LC-KJ | 1.18 |
| SK-LU-1 | 0.392 |
| SK-MES-1 | 0.31 |
| SW 900 | 0.594 |
| SW 1573 | 0.431 |
| UMC-11 | 0.347 |

Same assay, conditions: first compound 2.53 µM

| Cell Line | relative viability |
| --- | --- |
| NCI-H2228 | 0.844 |
| NCI-H2342 | 0.544 |
| NCI-H2347 | 0.456 |
| NCI-H2405 | 0.528 |
| NCI-H3122 | 0.186 |
| PC-3 [JPC-3] | 0.583 |
| PC-14 | 0.404 |
| RERF-LC-KJ | 1.23 |
| SK-LU-1 | 0.356 |
| SW 900 | 0.496 |
| SW 1573 | 0.365 |
| UMC-11 | 0.308 |

Same assay, conditions: first compound 8 µM

| Cell Line | relative viability |
| --- | --- |
| NCI-H2228 | 0.35 |
| NCI-H2342 | 0.533 |
| NCI-H2347 | 0.352 |
| NCI-H2405 | 0.509 |
| NCI-H3122 | 0.215 |
| PC-3 [JPC-3] | 0.564 |
| PC-14 | 0.167 |
| RERF-LC-KJ | 0.768 |
| SK-LU-1 | 0.385 |
| SK-MES-1 | 0.248 |
| SW 900 | 0.324 |
| SW 1573 | 0.192 |
| UMC-11 | 0.318 |

Each cell line was assayed with CN1CCN(CC1)C2=CC(=C(C=C2)NC3=NC=C4C(=N3)N(C5=CC=CC=C5C(=O)N4C)C)OC [XMD8-85] + N=C(N)NC(=N)NCCc1ccccc1 [Phenformin] (partner 250 µM) in the same assay as above. Conditions: first compound 0.08 µM.
Method in brief: as §1

| Cell Line | relative viability |
| --- | --- |
| NCI-H2228 | 0.235 |
| NCI-H2342 | 0.646 |
| NCI-H2347 | 0.357 |
| NCI-H2405 | 0.391 |
| NCI-H3122 | 0.388 |
| PC-3 [JPC-3] | 0.431 |
| PC-14 | 0.524 |
| RERF-LC-KJ | 0.46 |
| SK-LU-1 | 0.382 |
| SK-MES-1 | 0.699 |
| SW 900 | 0.448 |
| SW 1573 | 0.466 |
| UMC-11 | 0.337 |

Same assay, conditions: first compound 0.253 µM

| Cell Line | relative viability |
| --- | --- |
| NCI-H2228 | 0.293 |
| NCI-H2342 | 0.56 |
| NCI-H2347 | 0.382 |
| NCI-H2405 | 0.391 |
| NCI-H3122 | 0.383 |
| PC-3 [JPC-3] | 0.446 |
| PC-14 | 0.66 |
| RERF-LC-KJ | 0.445 |
| SK-LU-1 | 0.59 |
| SK-MES-1 | 0.624 |
| SW 900 | 0.523 |
| SW 1573 | 0.37 |
| UMC-11 | 0.348 |

Same assay, conditions: first compound 0.8 µM

| Cell Line | relative viability |
| --- | --- |
| NCI-H2228 | 0.34 |
| NCI-H2342 | 0.682 |
| NCI-H2347 | 0.388 |
| NCI-H2405 | 0.366 |
| NCI-H3122 | 0.389 |
| PC-3 [JPC-3] | 0.467 |
| PC-14 | 0.575 |
| RERF-LC-KJ | 0.406 |
| SK-LU-1 | 0.653 |
| SK-MES-1 | 0.645 |
| SW 900 | 0.675 |
| SW 1573 | 0.392 |
| UMC-11 | 0.398 |

Same assay, conditions: first compound 2.53 µM

| Cell Line | relative viability |
| --- | --- |
| NCI-H2228 | 0.334 |
| NCI-H2342 | 0.608 |
| NCI-H2347 | 0.393 |
| NCI-H2405 | 0.381 |
| NCI-H3122 | 0.373 |
| PC-3 [JPC-3] | 0.537 |
| PC-14 | 0.611 |
| RERF-LC-KJ | 0.379 |
| SK-LU-1 | 0.68 |
| SK-MES-1 | 0.643 |
| SW 900 | 0.554 |
| SW 1573 | 0.389 |
| UMC-11 | 0.33 |

Same assay, conditions: first compound 8 µM

| Cell Line | relative viability |
| --- | --- |
| NCI-H2228 | 0.261 |
| NCI-H2342 | 0.599 |
| NCI-H2405 | 0.228 |
| NCI-H3122 | 0.32 |
| PC-3 [JPC-3] | 0.514 |
| PC-14 | 0.193 |
| RERF-LC-KJ | 0.326 |
| SK-LU-1 | 0.467 |
| SK-MES-1 | 0.427 |
| SW 900 | 0.22 |
| SW 1573 | 0.306 |
| UMC-11 | 0.232 |
